Where two headings read alike, the source gives them in different places. One block for each compound: values may come before it.
Experiments:
[1] = Stabilizing effect of 1:1 mixtures of NEM with other inhibitors, procedures of Examples 5 to 8 (Example 9); format: physicochemical, bovine
Text: The procedures stated in the Examples 5 to 8 were repeatedly carried out using the mixtures of NEM with monochloroamide, acrylamide, glycinamide, and dithioprydine, as an inhibiting agent, in an amount of 1:1, as other representative examples.

[2] = Insoluble precipitation after storage of absorbed plasma mixture with various substances (Example 4); format: physicochemical, bovine; details: storage 24 hours at 10° C. Note: key: +: Yes; −: No.
Procedure: (§1) To 100 ml of bovine plasma, barium sulfate in 20 w/v % was added. The mixture was mixed for 30 minutes at room temperature, and stirred slowly. Subsequently, the mixture was centrifuged at 5,000×g to remove the barium sulfate precipitate, and absorbed plasma was prepared by adding in the supernatant, and was mixed with 1 ml of N-ethylmaleimide, as inhibitor for Factor XIII. In other words, the composition prepared, contained at least Factor V and fibrinogen. Beside these, the absorbed plasma, without containing 1 mL of N-ethylmaleimide, was prepared and used, as a control.
(§2) Separately, one volume of the absorbed plasma and one volume of 20 mM Hepes-Tris buffer solution (pH 7.0), in which 10 mM of calcium lactate was added, were mixed together to prepare the solution. To the solution, each of substance, stated in Table 1 as below, was added so that mixture might show such a concentration as mentioned in the Table 1. With these mixtures, the inhibiting rate for factor XIII, and a producing rate of the insoluble matter after storage for 24 hours at 10° C. were measured.

factor XIII = assay: Inhibiting for factor XIII in absorbed plasma/calcium lactate buffer mixture (Example 4); format: biochemical, bovine; note: key: +: Yes; −: No
Procedure: as §1, §2

[3] = Insoluble precipitation in three adsorbed plasmas with N-ethylmaleimide (Example 6); format: physicochemical, bovine; design: key: +: Insoluble precipitation; −: No insoluble precipitation; details: NEM (+)
Procedure: To 100 ml of bovine plasma, barium sulfate in 20 w/v % was added. The mixture was mixed for 30 minutes at room temperature, and stirred slowly. Subsequently, the mixture was centrifuged at 5,000×g to remove the barium sulfate precipitate, and absorbed plasma was prepared by adding in the supernatant, and was mixed with 1 ml of N-ethylmaleimide, as inhibitor for Factor XIII. In other words, the composition prepared, contained at least Factor V and fibrinogen. Beside these, the absorbed plasma, without containing 1 mL of N-ethylmaleimide, was prepared and used, as a control. To study the effect of the present invention, one volume of three types absorbed plasma, prepared in the Example 2 and one volume of 20 mM Hepes-Trisbuffersolution were mixed together, and visually detected both after storing 24 hours at 10° C., and right after freeze-thawed at […]. As clearly seen in the Table 3, none of the adsorbed plasma mixed with N-ethylmaleimide observed the insoluble precipitation, neither in storing at 10° C. or after freeze-thawed treatment. […] Thus, it has become clear that the insoluble precipitation can be inhibited by adding N-ethylmaleimide.

[4] = system: commercially available control plasma; assay: Reagent performance: coagulation activity / clotting time of control plasma on blood coagulation analyzer Coagre (Example 8); format: biochemical; details: reagent with NEM added
Procedure: In order to confirm the performance of each reagent, prepared in the Example 8, the performance was evaluated using Blood coagulation analyzer, Coagre (manufactured by Shimazu, Co., Japan) by measuring clotting time with commercially available control plasma. The performance and stability of the reagent evaluated by using the reagents, prepared and preserved for several days at 10° C., to obtain plasma coagulation activity of control plasma. As clearly seen in the Table 5, clotting time was not varied even adding NEM.

[5] = Influence of N-ethylmaleimide concentration on insoluble precipitation, visually detected (Example 5); format: physicochemical, bovine; design: key: +: Insoluble Precipitation; ±: Slightly insoluble precipitation; −: No insoluble precipitate
Procedure: To 100 ml of bovine plasma, barium sulfate in 20 w/v % was added. The mixture was mixed for 30 minutes at room temperature, and stirred slowly. Subsequently, the mixture was centrifuged at 5,000×g to remove the barium sulfate precipitate, and absorbed plasma was prepared by adding in the supernatant, and was mixed with 1 ml of N-ethylmaleimide, as inhibitor for Factor XIII. In other words, the composition prepared, contained at least Factor V and fibrinogen. Beside these, the absorbed plasma, without containing 1 mL of N-ethylmaleimide, was prepared and used, as a control. The absorbed plasma was prepared in the same manner as stated in the Example 2, except that a concentration of N-ethylmaleimide was varied. Separately, one volume of the absorbed plasma and one volume of 20 mM Hepes-Tris buffer solution (pH 7.0), in which 10 mM of calcium lactate was added, were mixed together to prepare the solution, for which a producing rate of the insoluble matter was visually detected both after storing 24 hours at 10° C., and right after freeze-thawed at −20° C. As clearly seen in the Table 2, it has been cleared that N-ethylmaleimide may inhibit insoluble precipitation even with adding 1 mM concentration, however, more preferably 1 mM to 10 mM.

[6] = mixture of NEM with the inhibitor 1:1, procedures of Examples 5 to 8
[7] = substance 1 mM in absorbed plasma + Hepes-Tris/calcium lactate

Compound: monochloroamide
stabilizing effect compared with NEM [1, 6]: equal or slightly inferior to NEM

Compound: O=C(O)CI [Monoiodo acetic acid]
Precipitation ([2]; substance 1 mM): − | Inhibiting for factor XIII (factor XIII; [7]): +

Precipitation ([2]; substance 1 mM): − | Insoluble precipitation ([3]; Adsorbed plasma 1, Storage after freeze-thawing at −20° C.): − | Insoluble precipitation ([3]; Adsorbed plasma 1, Storage at 10° C.): − | Insoluble precipitation ([3]; Adsorbed plasma 2, Storage after freeze-thawing at −20° C.): − | Insoluble precipitation ([3]; Adsorbed plasma 2, Storage at 10° C.): − | Insoluble precipitation ([3]; Adsorbed plasma 3, Storage after freeze-thawing at −20° C.): − | Insoluble precipitation ([3]; Adsorbed plasma 3, Storage at 10° C.): − | Insoluble precipitation ([5]; 0.1 mM, Bovine plasma 1, 24 hours at 10° C.): ± | Insoluble precipitation ([5]; 0.1 mM, Bovine plasma 1, freeze-thawed at −20° C.): + | Insoluble precipitation ([5]; 0.1 mM, Bovine plasma 2, 24 hours at 10° C.): ± | Insoluble precipitation ([5]; 0.1 mM, Bovine plasma 2, freeze-thawed at −20° C.): + | Insoluble precipitation ([5]; 1 mM, Bovine plasma 1, 24 hours at 10° C.): − | Insoluble precipitation ([5]; 1 mM, Bovine plasma 1, freeze-thawed at −20° C.): − | Insoluble precipitation ([5]; 1 mM, Bovine plasma 2, 24 hours at 10° C.): − | Insoluble precipitation ([5]; 1 mM, Bovine plasma 2, freeze-thawed at −20° C.): − | Insoluble precipitation ([5]; 2 mM, Bovine plasma 1, 24 hours at 10° C.): − | Insoluble precipitation ([5]; 2 mM, Bovine plasma 1, freeze-thawed at −20° C.): − | Insoluble precipitation ([5]; 2 mM, Bovine plasma 2, 24 hours at 10° C.): − | Insoluble precipitation ([5]; 2 mM, Bovine plasma 2, freeze-thawed at −20° C.): − | Insoluble precipitation ([5]; 5 mM, Bovine plasma 1, 24 hours at 10° C.): − | Insoluble precipitation ([5]; 5 mM, Bovine plasma 1, freeze-thawed at −20° C.): − | Insoluble precipitation ([5]; 5 mM, Bovine plasma 2, 24 hours at 10° C.): − | Insoluble precipitation ([5]; 5 mM, Bovine plasma 2, freeze-thawed at −20° C.): − | Insoluble precipitation ([5]; 10 mM, Bovine plasma 1, 24 hours at 10° C.): − | Insoluble precipitation ([5]; 10 mM, Bovine plasma 1, freeze-thawed at −20° C.): − | Insoluble precipitation ([5]; 10 mM, Bovine plasma 2, 24 hours at 10° C.): − | Insoluble precipitation ([5]; 10 mM, Bovine plasma 2, freeze-thawed at −20° C.): −
Compound: CCN1C(=O)C=CC1=O [N-ethylmaleimide]
Inhibiting for factor XIII (factor XIII; [7]): + | clotting time [4]: not varied

Compound: CN(C)c1c([N+](=O)[O-])cc(N2C(=O)C=CC2=O)cc1[N+](=O)[O-] [N-(4-dimethylamino-3,5-dinitrophenyl) maleimide]
Precipitation ([2]; substance 1 mM): − | Inhibiting for factor XIII (factor XIII; [7]): +

Compound: C=CC(N)=O [acrylamide]
stabilizing effect compared with NEM [1, 6]: equal or slightly inferior to NEM

stabilizing effect compared with NEM [1]: equal or slightly inferior to NEM
Compound: dithioprydine

Precipitation ([2]; substance 5%): +
Compound: OC[C@H]1O[C@@](CO)(O[C@H]2O[C@H](CO)[C@@H](O)[C@H](O)[C@H]2O)[C@@H](O)[C@@H]1O [Sucrose]
Inhibiting for factor XIII (factor XIII; substance 5% in absorbed plasma + Hepes-Tris/calcium lactate): −

Compound: Bovine serum albumin: Bovine serum albumin, comparison substance added at 1%
Precipitation ([2]; substance 1%): + | Inhibiting for factor XIII (factor XIII; substance 1% in absorbed plasma + Hepes-Tris/calcium lactate): −

stabilizing effect compared with NEM [1]: equal or slightly inferior to NEM
Compound: NCC(N)=O [glycinamide]

Compound: [Cl-].[Na+] [NaCl]
Inhibiting for factor XIII (factor XIII; substance 10 mM in absorbed plasma + Hepes-Tris/calcium lactate): −

Reference: patent US20030044872A1, “Means of stabilizing compositions and reagents” (priority 1999, published 2003)
